From PubChem BioAssay AID248 (DTP/NCI, 2004)
Values joined by “and” are separate entries in the source; they are usually repeats but may differ in a detail not shown here. Equal values may be shown once. Inconclusive results and toxic doses are left out. Cut-off read from the data, not from the text of the source: active = T/C of 150% or more; inactive = T/C below 125%.

Tested on: L1210 leukemia ip in BDF1 mice, survival T/C
Assay: NCI In Vivo Anticancer Drug Screen. Data for tumor model L1210 Leukemia (intraperitoneal) in B6D2F1 (BDF1) mice
Settings: endpoint: mean survival time, higher = longer survival
How it was run: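 Each compound was tested against a transplantable tumor grown in mice. The endpoint was survival, with treated animals benchmarked against vehicle controls as a simple ratio.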

[1] = dose: 100.0 mg/kg/injection, schedule: Q01DX001 (ip), vehicle: saline
[2] = dose: 200.0 mg/kg/injection, schedule: Q01DX001 (ip), vehicle: saline
[3] = dose: 400.0 mg/kg/injection, schedule: Q01DX001 (ip), vehicle: saline
[4] = dose: 50.0 mg/kg/injection, schedule: Q01DX001 (ip), vehicle: saline
[5] = dose: 50.0 mg/kg/injection, schedule: Q04DX003 (ip), vehicle: Klucel (hydroxypropylcellulose) (HPC)
[6] = dose: 100.0 mg/kg/injection, schedule: Q04DX003 (ip), vehicle: Klucel (hydroxypropylcellulose) (HPC)
[7] = dose: 200.0 mg/kg/injection, schedule: Q04DX003 (ip), vehicle: Klucel (hydroxypropylcellulose) (HPC)
[8] = dose: 100.0 mg/kg/injection, schedule: Q01DX001 (ip), vehicle: Klucel (hydroxypropylcellulose) (HPC)
[9] = dose: 200.0 mg/kg/injection, schedule: Q01DX001 (ip), vehicle: Klucel (hydroxypropylcellulose) (HPC)
[10] = dose: 400.0 mg/kg/injection, schedule: Q01DX001 (ip), vehicle: Klucel (hydroxypropylcellulose) (HPC)
[11] = dose: 100.0 mg/kg/injection, schedule: Q01DX009 (ip), vehicle: saline
[12] = dose: 100.0 mg/kg/injection, schedule: Q04DX003 (ip), vehicle: saline
[13] = dose: 200.0 mg/kg/injection, schedule: Q01DX009 (ip), vehicle: saline
[14] = dose: 200.0 mg/kg/injection, schedule: Q04DX003 (ip), vehicle: saline
[15] = dose: 400.0 mg/kg/injection, schedule: Q01DX009 (ip), vehicle: saline
[16] = dose: 400.0 mg/kg/injection, schedule: Q04DX003 (ip), vehicle: saline
[17] = dose: 25.0 mg/kg/injection, schedule: Q04DX003 (ip), vehicle: saline
[18] = dose: 50.0 mg/kg/injection, schedule: Q04DX003 (ip), vehicle: saline

Measured: T/C

c1ccc2c(C(CCN3CCCCC3)CNC3=NCCN3)cccc2c1 (configuration not stated)
inactive: dose: 5.0 mg/kg/injection, schedule: Q04DX003 (ip), vehicle: saline with Tween-80 96 % of control | dose: 10.0 mg/kg/injection, schedule: Q04DX003 (ip), vehicle: saline with Tween-80 105 % of control | dose: 20.0 mg/kg/injection, schedule: Q04DX003 (ip), vehicle: saline with Tween-80 98 % of control

C[C@]12C=CC(=O)C=C1CC[C@@H]1[C@@H]2[C@@H](O)C[C@@]2(C)[C@H]1CC[C@]2(O)C(=O)COC(=O)CCC(=O)O
inactive: dose: 63.0 mg/kg/injection, schedule: Q01DX015 (sc), vehicle: steriod suspending solution 106 % of control | dose: 125.0 mg/kg/injection, schedule: Q01DX015 (sc), vehicle: steriod suspending solution 106 % of control | dose: 250.0 mg/kg/injection, schedule: Q01DX015 (sc), vehicle: steriod suspending solution 96 % of control | dose: 500.0 mg/kg/injection, schedule: Q01DX015 (sc), vehicle: steriod suspending solution 108 % of control and 116 % of control

COc1ccc2c3c([nH]c2c1)C(C)=NCC3
inactive: dose: 25.0 mg/kg/injection, schedule: Q04DX002 (ip), vehicle: Klucel (hydroxypropylcellulose) (HPC) 93 % of control | dose: 50.0 mg/kg/injection, schedule: Q04DX002 (ip), vehicle: Klucel (hydroxypropylcellulose) (HPC) 101 % of control | dose: 100.0 mg/kg/injection, schedule: Q04DX002 (ip), vehicle: Klucel (hydroxypropylcellulose) (HPC) 93 % of control and 89 % of control

OCC1OC(c2ccccc2)OC1C1OC(c2ccccc2)OC1CO (configuration not stated)
inactive: [1] 98 % of control | [2] 96 % of control | [3] 98 % of control

CC1=NN(c2ccccc2)C(=O)C1N=Nc1ccc(S(=O)(=O)Nc2nccs2)cc1 (configuration not stated)
inactive: [1] 96 % of control | [2] 91 % of control | [3] 91 % of control

C1CN2CCN1CC2
inactive: dose: 37.5 mg/kg/injection, schedule: Q01DX009 (ip), vehicle: Klucel (hydroxypropylcellulose) (HPC) 91 % of control | dose: 75.0 mg/kg/injection, schedule: Q01DX009 (ip), vehicle: Klucel (hydroxypropylcellulose) (HPC) 91 % of control | dose: 150.0 mg/kg/injection, schedule: Q01DX009 (ip), vehicle: Klucel (hydroxypropylcellulose) (HPC) 89 % of control | dose: 300.0 mg/kg/injection, schedule: Q01DX009 (ip), vehicle: Klucel (hydroxypropylcellulose) (HPC) 94 % of control

Cc1n[nH]c(=S)nc1C
inactive: [4] 96 % of control | [5] 96 % of control | [1] 102 % of control | [6] 96 % of control | [2] 93 % of control | [7] 91 % of control

N#Cc1c2ccccc2c(=N)n2ccccc12
inactive: [8] 95 % of control | [6] 98 % of control | [9] 105 % of control | [7] 104 % of control | [10] 95 % of control | dose: 400.0 mg/kg/injection, schedule: Q04DX003 (ip), vehicle: Klucel (hydroxypropylcellulose) (HPC) 114 % of control

COc1ccccc1/C=C(\S)C(=O)O
inactive: [1] 103 % of control | [2] 97 % of control | [3] 97 % of control

COC1(c2ccc(Cl)s2)OC1(C)C (configuration not stated)
inactive: [11] 100 % of control | [12] 100 % of control | [13] 96 % of control | [14] 105 % of control | [15] 105 % of control | [16] 96 % of control

c1ccc(CC(Cc2ccccc2)CN2CCCC2)cc1
inactive: [11] 94 % of control | [12] 95 % of control | [13] 102 % of control | [14] 94 % of control | [15] 103 % of control | [16] 89 % of control

CCCCCCN
inactive: dose: 25.0 mg/kg/injection, schedule: Q01DX001 (ip), vehicle: saline 97 % of control | dose: 25.0 mg/kg/injection, schedule: Q01DX009 (ip), vehicle: saline 93 % of control and 105 % of control | dose: 25.0 mg/kg/injection, schedule: Q04DX002 (ip), vehicle: saline 97 % of control and 100 % of control | [17] 103 % of control | [4] 111 % of control | dose: 50.0 mg/kg/injection, schedule: Q01DX009 (ip), vehicle: saline 101 % of control and 104 % of control | dose: 50.0 mg/kg/injection, schedule: Q04DX002 (ip), vehicle: saline 97 % of control and 103 % of control | [18] 114 % of control | [1] 101 % of control | [11] 102 % of control | [12] 110 % of control

O=C1NC(=O)C(c2ccccc2)(C2CC2)N1 (configuration not stated)
inactive: [5] 107 % of control | [1] 93 % of control | [6] 95 % of control | [2] 93 % of control | [7] 101 % of control | [3] 98 % of control

C=C(C)C(C(=O)OC)n1scc(NCc2ccccc2)c1=O (configuration not stated)
inactive: [12] 91 % of control | [14] 91 % of control | [16] 89 % of control

CCCCCCCCCC(N)C(=O)O (configuration not stated)
inactive: dose: 50.0 mg/kg/injection, schedule: Q04DX002 (ip), vehicle: gum acacia 100 % of control | dose: 100.0 mg/kg/injection, schedule: Q04DX002 (ip), vehicle: gum acacia 98 % of control | dose: 200.0 mg/kg/injection, schedule: Q04DX002 (ip), vehicle: gum acacia 100 % of control

CCN(CC)c1ccc(N(C(C)=O)C(C)=O)cc1
inactive: dose: 6.25 mg/kg/injection, schedule: Q01DX009 (ip), vehicle: saline with Tween-80 98 % of control | dose: 12.5 mg/kg/injection, schedule: Q01DX009 (ip), vehicle: saline with Tween-80 96 % of control | dose: 25.0 mg/kg/injection, schedule: Q01DX009 (ip), vehicle: saline with Tween-80 96 % of control

O=C(CCCCC(=O)OCC1COCO1)OCC1COCO1 (configuration not stated)
inactive: dose: 222.0 mg/kg/injection, schedule: Q01DX Z (ip), vehicle: methylcellulose (MC) 98 % of control | dose: 333.0 mg/kg/injection, schedule: Q01DX Z (ip), vehicle: methylcellulose (MC) 98 % of control | dose: 500.0 mg/kg/injection, schedule: Q01DX Z (ip), vehicle: methylcellulose (MC) 98 % of control

C1CCN(CCC2CCCCN2)CC1 (configuration not stated)
inactive: [17] 105 % of control | [18] 94 % of control | [12] 101 % of control and 92 % of control

CCCCCc1[nH]c(=O)[nH]c(=O)c1S(=O)(=O)N1CCCCC1
inactive: [8] 107 % of control | [9] 97 % of control | [10] 110 % of control
